Data on six compounds can be found in US20070066672A1, “Benzimidazole derivatives and use thereof as peptide deformylase inhibitors” (Arpida A/S, priority 2003, published 2007).

Structures are written as SMILES. pIC50: −log10 of the molar value.

For test [1], the target named is T1, Peptide Deformylase (PDF) (Escherichia coli, UniProt P0A6K3).
T1 construct: made in house
The experiment in a line: Bacterial peptide deformylase (PDF) assay, colorimetric cell free, enzyme from E. coli. It counts as biochemical. From the text: (§1) To find inhibitors of Peptide Deformylase (PDF), a colorimetric cell free assay for measuring the enzymatic activity of PDF has been adapted to the microtiter plate format (96 wells). The assay comprises three components, purified PDF, f-Met-Ala as substrate and TNBS as the detecting agent of primary amino groups. The resulting TNP_NH-Met-Ala sulfite complex can be detected at 420 nm. PDF enzymes, containing Fe^2+ as the native metal, are purified and are stabilized by the addition of tris(2-carboxyethyl)phosphine (TCEP).
(§2) The IC50 value of a compound of the invention as a bacterial PDF inhibitor was determined using the following assay.
(§3) Assay buffer 0.1 M MOPS pH was adjusted to 7.2 with NaOH, containing 0.25 M NaCl, 100 μg/mL catalase and 1 mg/mL BSA.
(§4) E. coli enzyme (2.5 mg/ml) 10 μl+290 μl Assay buffer, 1 μl per ml enzyme mix. S. aureus (15 mg/ml) 10 μl+990 μl Assay buffer, 0.3 μl per ml enzyme mix.
(§5) Substrate mix: 10 mM f-Met-Ala was made up from 200 mM f-Met-Ala in methanol with assay buffer.
(§6) TNBS solution: Freshly dilute 1 M TNBS stock solution diluted 1:10 with water.
(§7) Buffer C: 0.5 M borate buffer adjusted to pH 9.5 with NaOH.
(§8) Buffer D: 0.2 ml of freshly prepared 0.5 M Na2SO3 was mixed with 9.8 mL of 0.5M NaH2PO4.
(§9) Inhibitor solution: 2 mM Sodium 4-(hydroxymercurio)benzoate in assay buffer.
(§10) Compound mix: Compound of formula I dissolved in DMSO in a 10 mg/mL stock solution. Further dilutions were made in DMSO in the concentration range between 0.05 to 100 mM.
(§11) The assay was performed in a 96 Microtiter plate containing test compound. To each well containing test compound mix was added 75 microliter of enzyme mix from E. coli followed by the addition of 25 microliter of substrate mix. The resulting mix was incubated for 30 minutes at room temperature with shaking. TNBS solution (50 microliter/well) was added and the resulting mixture was incubated for 15 minutes under shaking. Buffer C was then added (20 microliter/well). After incubating at room temperature for 15 minutes under shaking, buffer D was added (50 microliter/well). The optical […] was then measured at 420 nm, thereby determining the IC50 value.

Test [2] has as its target T2, Peptide Deformylase (PDF) (Staphylococcus aureus, UniProt P68826).
T2 construct: made in house
T2 sequence (P68826 1-183): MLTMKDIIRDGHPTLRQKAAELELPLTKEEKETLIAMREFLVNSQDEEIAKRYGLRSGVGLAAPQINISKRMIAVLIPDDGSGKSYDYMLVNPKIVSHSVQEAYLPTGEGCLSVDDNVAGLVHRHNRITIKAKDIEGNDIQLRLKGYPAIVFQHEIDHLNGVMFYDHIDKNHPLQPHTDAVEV
The experiment in a line: Bacterial peptide deformylase (PDF) assay, colorimetric cell free, enzyme from S. aureus. Format: biochemical. Conditions: f-Met-Ala substrate, TNBS detection at 420 nm.
Source text: as §1, §2, §3, §4, §5, §6, §7, §8, §9, §10, §11
The assay was repeated using enzyme mix from S. aureus.

T1 sequence (P0A6K3 whole entry): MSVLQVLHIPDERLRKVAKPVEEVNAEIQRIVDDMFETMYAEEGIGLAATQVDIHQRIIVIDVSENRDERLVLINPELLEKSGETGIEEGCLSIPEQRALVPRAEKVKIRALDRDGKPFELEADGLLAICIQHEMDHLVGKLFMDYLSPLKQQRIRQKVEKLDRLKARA

For orientation: pIC50 means the negative decadic logarithm of the IC50, by convention in mol/L. A low value points to a high IC50. With `COC(=O)CNC(=O)c1ccc2c(c1)nc(C(CCc1ccccc1)NC(=O)CCC(=O)O)n2Cc1ccccc1Cl` (stereo not drawn) [Example 9, N-{1-[1-(2-Chloro-benzyl)-5-(methoxycarbonylmethyl-carbamoyl)-1H-benzoimidazol-2-yl]-3-phenyl-propyl}-succinamic acid], the negative logarithm of the IC50 (pIC50) in test [1] is 4.56; in test [2], 4.74.

`CCC(NC(=O)CCC(=O)NO)c1nc2cc(C(=O)NCC(=O)OC)ccc2n1C1CC1` (stereo not drawn) [Example 29, ({1-Cyclopropyl-2-[1-(3-hydroxycarbamoyl-propionylamino)-propyl]-1H-benzoimidazole-5-carbonyl}-amino)-acetic acid methyl ester]: the figures for the pIC50 in test [1] and in test [2] were 7.10 and 6.98, respectively.

Regarding `COC(=O)CNC(=O)c1ccc2c(c1)nc(C(CCSC)NC(=O)CCC(=O)NO)n2Cc1ccccc1` (stereo not drawn) [Example 38], the pIC50 was 4.59 in test [1] and 5.46 in test [2].

Take `CCCCn1c(C(Cc2ccccc2)NC(=O)CCC(=O)O)nc2cc(C(=O)NCC(=O)OC)ccc21` (stereo not drawn) [Example 4, N-{1-[1-Butyl-5-(methoxycarbonylmethyl-carbamoyl)-1H-benzoimidazol-2-yl]-2-phenyl-ethyl}-succinamic acid]: the pIC50 in test [1] is 5.55; in test [2], 6.00.

In the case of `CCC(NC(=O)CCC(=O)NO)c1nc2cc(C(=O)NCC(=O)OC)ccc2n1Cc1ccco1` (stereo not drawn) [Example 31, ({1-Furan-2-ylmethyl-2-[1-(3-hydroxycarbamoyl-propionylamino)-propyl]-1H-benzoimidazole-5-carbonyl}-amino)-acetic acid methyl ester], the negative logarithm of the IC50 (pIC50) in test [1] was 7.01; in test [2], 6.82.

Regarding `COC(=O)CNC(=O)c1ccc2c(c1)nc(C(Cc1ccccc1)NC(=O)CCS)n2CCO` (stereo not drawn) [Example 22, ({1-(2-Hydroxy-ethyl)-2-[1-(3-mercapto-propionylamino)-2-phenyl-ethyl]-1H-benzoimidazole-5-carbonyl}-amino)-acetic acid methyl ester], the negative logarithm of the IC50 (pIC50) in test [1] and in test [2] was < 3.70 each time.
